For twelve compounds, TGI results are on record in PubChem BioAssay (NCI).

Test in all cases: NCI-60 cell line screen, 48 h
Assay [1] has as its system K-562 leukemia.
Assay [2] relates to OVCAR-8 ovarian.
Assay [3] relates to SNB-19 CNS.
Assay [4] has as its system SNB-75 CNS.
The test system of assay [5] is BT-549 breast.
Assay [6] relates to NCI/ADR-RES ovarian.
For assay [7], the system named is SW-620 colon.
Assay [8] relates to NCI-H226 lung.
The subject of assay [9] is NCI-H460 lung.
For assay [10], the system named is SN12C renal.
For assay [11], the system named is KM12 colon.
Assay [12] has as its system EKVX NSCLC.
Assay [13] has as its system ACHN renal.
Assay [14] relates to MALME-3M melanoma.
Assay [15] has as its system A549 NSCLC.
Assay [16] concerns 786-0 renal.
Assay [17] relates to RXF 393 renal.
Assay [18] relates to TK-10 renal.
In assay [19] the test system is A498 renal.

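Where inhibition never reached the appropriate level, the endpoint shown equals the highest concentration tested. Otherwise, values were interpolated linearly from a five-concentration, 48-hour dose response in 96-well plates. TGI: concentration producing complete growth inhibition.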

For `COC(=O)c1c(O)ccc2c1c1c(n2Cc2ccccc2)C(=O)c2ccccc2C1=O`, the TGI in assay [1] amounted to 36.3 µM; in [2], 26.2 µM; in assay [3], 28.7 µM; in [4], 29.1 µM; in [5] it was 31.6 µM; in [6] it was 28.8 µM. Moreover, the TGI is 46 µM in assay [7]; 39.6 µM in [8]; 59.8 µM in assay [9]; 28.1 µM in assay [10]; 29.7 µM in [11]; 36.6 µM in assay [12]. For the same compound, the TGI stood at 25.3 µM in assay [13]; 54.7 µM in [14]; 22.6 µM in assay [15]; 32.1 µM in assay [16]; 37 µM in [17]; 31.8 µM in [18].
For the compound `N=c1oc2ccc([N+](=O)[O-])cc2cc1C(=O)NCc1ccccc1`, the TGI was more than 100 µM in assay [1]; 33.2 µM in [2]; more than 100 µM in [3]; 29.5 µM in assay [4]; 30 µM in assay [5]; 33.6 µM in [6]. The TGI in [7] is 39.5 µM; in assay [8] it was 26.9 µM; in assay [9], more than 100 µM; in assay [10] it was 36.9 µM; in [11] it was 36.7 µM; in assay [12], more than 100 µM. The TGI is 31.1 µM in assay [13]; 26.7 µM in assay [14]; more than 100 µM in [15]; 40 µM in assay [16]; 28 µM in assay [17]; 99.4 µM in [18].
Consider `CC(=O)C(I(OS(=O)(=O)c1ccc(C)cc1)c1ccccc1)=P(c1ccccc1)(c1ccccc1)c1ccccc1`, for which the TGI was more than 100 µM in [1]; more than 100 µM in assay [2]; more than 100 µM in assay [3]; 46.3 µM in [5]; more than 100 µM in [19]; more than 100 µM in assay [6]. The TGI in assay [8] was 38.8 µM; in [9], more than 100 µM; in assay [10], 69.2 µM; in assay [11], 38.2 µM; in assay [12], 70.8 µM; in [13], more than 100 µM. Further, the TGI is 30 µM in [14]; 72.8 µM in assay [15]; more than 100 µM in assay [16]; more than 100 µM in [17]; more than 100 µM in [18].
As for `O=C1CC(=O)NC(=NN2C(=O)/C(=C/C(=O)c3ccco3)N=C2c2ccccc2)N1`, the TGI in [2], in assay [4], in assay [5], in assay [19], in assay [6] and in assay [7] was more than 100 µM each time. In addition, the TGI in assay [8], in [9], in [10], in [11], in assay [13] and in assay [14] was more than 100 µM throughout. For the same compound, the TGI in assay [15], in assay [16], in assay [17] and in assay [18] was more than 100 µM throughout.
For `O=c1c(C=Nc2ccccc2Cl)c(O)n(-c2ccccc2)c(=O)n1-c1ccccc1`, the TGI in assay [1], in assay [2], in assay [3], in assay [5], in assay [19] and in [6] was more than 100 µM each time. The TGI in assay [7], in [8], in assay [9], in assay [10], in assay [11] and in assay [12] was more than 100 µM throughout. Besides, the TGI in [13], in assay [14], in [15], in assay [16], in assay [17] and in assay [18] was more than 100 µM in each case.
Consider `ClC1(Cl)C(c2ccccc2)C1c1ccccc1` (centres undefined), for which the TGI in assay [1] was more than 100 µM; in assay [2] it was 77.4 µM; in [3] it was more than 100 µM; in [4] it was more than 100 µM; in assay [5], 77.4 µM; in assay [19], more than 100 µM. The TGI in assay [6] is 30.8 µM; in assay [7], more than 100 µM; in assay [8], 33.9 µM; in [9], 51.2 µM; in assay [10], more than 100 µM; in assay [11] it was more than 100 µM. Further, the TGI was 53.1 µM in assay [12]; 89.7 µM in assay [13]; more than 100 µM in [15]; more than 100 µM in assay [16]; 37.8 µM in assay [17]; more than 100 µM in assay [18].
Turning to `Cc1cc(C)nc(NS(=O)(=O)c2ccc(NNc3c4ccccc4nc4c(C(=O)Nc5ccc(S(=O)(=O)Nc6ncccn6)cc5)cccc34)cc2)n1`, the TGI was 73.1 µM in [1]; more than 100 µM in assay [2]; more than 100 µM in assay [3]; 73.9 µM in [4]; more than 100 µM in assay [5]; more than 100 µM in assay [6]. Moreover, the TGI in assay [7] is 55.2 µM; in assay [8], 53.2 µM; in [9], 92 µM; in assay [10], 75.1 µM; in assay [11], more than 100 µM; in assay [12], 54.3 µM. Besides, the TGI in assay [13] was 54.3 µM; in [14], 60.3 µM; in assay [15], more than 100 µM; in [16] it was more than 100 µM; in [17] it was 80.1 µM; in [18] it was more than 100 µM.
On to `O=C1CC(CC(O)[C@@H]2CCCC[C@@H]2O)CC(=O)N1c1ccccc1` (some centres undefined), for which the TGI in [1], in assay [2], in assay [3], in assay [4], in assay [5] and in [19] was more than 100 µM each time. Also, the TGI in assay [6], in [7], in assay [8], in [9], in assay [10] and in [11] was more than 100 µM each time. Moreover, the TGI in assay [13], in [14], in assay [15], in assay [16], in assay [17] and in assay [18] was more than 100 µM each time.
Regarding `COC(=O)C(Cc1cn(C(C)=O)c2ccccc12)P(=O)(OC)OC` (centres undefined), the TGI in assay [1], in [2], in [3], in assay [4], in assay [5] and in [19] was more than 100 µM throughout. In addition, the TGI in [6], in assay [7], in [8], in assay [9], in [10] and in assay [11] was more than 100 µM each time. In addition, the TGI in [13], in [15], in assay [17] and in [18] was more than 100 µM each time.
Take `CC(=O)O[C@@H]1CC[C@@]2(C)C(CC[C@H]3[C@@H]4CC[C@H]([C@H](C)CCc5nc6ccc(C)cc6[nH]5)[C@@]4(C)CC[C@@H]32)C1` (some centres undefined): the TGI is more than 100 µM in [1]; more than 100 µM in [2]; more than 100 µM in [3]; 24.1 µM in assay [4]; more than 100 µM in [5]; more than 100 µM in [19]. Also, the TGI in assay [6] was more than 100 µM; in assay [7], more than 100 µM; in assay [8], 48.1 µM; in [10], more than 100 µM; in assay [11], 31.7 µM; in assay [12], 53.3 µM. The TGI in [13], in assay [15], in assay [16], in [17] and in assay [18] was more than 100 µM throughout.
As to `c1ccc2c(C3CCN(CCN4CCOCC4)C3)c[nH]c2c1` (centres undefined), the TGI in assay [1], in [2], in [3], in assay [4], in assay [5] and in assay [19] was more than 100 µM each time. Further, the TGI in [6], in [7], in assay [9], in [10], in assay [11] and in [12] was more than 100 µM in each case. The TGI in assay [13], in assay [14], in assay [15], in assay [16], in assay [17] and in assay [18] was more than 100 µM throughout.
Regarding `COc1cc(/C=C(\C#N)c2nc3ccccc3o2)ccc1O`, the TGI was more than 100 µM in [1]; 50 µM in [2]; more than 100 µM in assay [3]; 34.5 µM in assay [5]; 34.8 µM in [19]; 64.3 µM in [6]. Further, the TGI was 49 µM in assay [8]; 48.4 µM in assay [9]; more than 100 µM in assay [10]; 37.7 µM in assay [11]; 49.6 µM in assay [12]; 46.9 µM in [13]. In addition, the TGI in assay [14] is 56.3 µM; in assay [15] it was 43.4 µM; in [16] it was 66.4 µM; in assay [17] it was more than 100 µM; in assay [18], 75 µM.
